In patent US9403806B1, “Cognition enhancing compounds and compositions, methods of making, and methods of treating” (NeuroSolis, Inc., priority 2010, dated 2016):
Read-outs that look alike come from different tables or passages of the source.

Key:
[1] = target: T1, human muscarinic M1 receptors (Homo sapiens, UniProt P11229); type: cell-based; settings: for huM1/A9L Smax: percentage of maximal stimulation by carbachol; for huM1/A9L Potency relative to carbachol: relative to the potency of carbachol at its EC50
T1 construct: host or cells: A9L cells
T1 sequence (P11229 1-460): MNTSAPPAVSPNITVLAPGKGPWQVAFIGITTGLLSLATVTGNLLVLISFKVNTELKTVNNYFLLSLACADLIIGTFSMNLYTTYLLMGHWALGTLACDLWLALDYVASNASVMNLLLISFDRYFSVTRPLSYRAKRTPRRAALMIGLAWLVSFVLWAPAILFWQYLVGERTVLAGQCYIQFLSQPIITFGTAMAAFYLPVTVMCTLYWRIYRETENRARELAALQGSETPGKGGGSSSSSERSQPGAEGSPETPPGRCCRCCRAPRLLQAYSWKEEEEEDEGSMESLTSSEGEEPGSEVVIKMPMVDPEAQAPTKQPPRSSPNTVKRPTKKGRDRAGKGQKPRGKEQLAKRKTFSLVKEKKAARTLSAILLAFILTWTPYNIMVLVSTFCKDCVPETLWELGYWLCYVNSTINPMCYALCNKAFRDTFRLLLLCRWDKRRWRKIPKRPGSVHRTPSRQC
Experimental: (§1) Muscarinic M1 and M3 agonist activity was evaluated by measuring the stimulation of inositol phosphate (IP) production in the presence of lithium chloride from A9L cells transfected with expression plasmids containing human muscarinic M1 and M3 receptors, respectively. The cell lines were a gift from Professor William Messer, and the methods were as described in Tejada et al. (J. Med. Chem. 2006; 49: 7518-31) except that the assay was scaled down to run in 384-well plates and the concentration of inositol-1-phosphate in the lysates was determined using the non-isotopic IP-One Terbium TR-FRET assay kit (Cisbio Bioassays, cat. #62IPAPEJ) according to the manufacturer's instructions.
(§2) Cells were grown to 90% confluence in 384-well high-base, small-volume plates (Greiner Bio-One), compounds were added at suitable concentrations in growth medium containing 10 mM LiCl, buffered with an extra 10 mM HEPES (pH=7.4), and incubated for 60 minutes at 37° C. Cells were lysed and assayed for IP following the manufacturer's instructions.
(§3) The value for a full agonist is 100%, while partial agonists give values below 100%.

[2] = target: T2, human muscarinic M3 receptors (Homo sapiens, UniProt P20309); type: cell-based; settings: for huM3/A9L Smax: percentage of maximal stimulation by carbachol; for huM3/A9L Potency relative to carbachol: relative to the potency of carbachol at its EC50
T2 construct: host or cells: A9L cells
Experimental: as §1, §2, §3

[3] = Blood and brain concentrations (rats), tail vein injection; type: in vivo, Long-Evans Hooded rats; settings: male, Long-Evans Hooded, rat, in vivo, 3 mg/kg, 3 mg/kg tail vein injection, read-out: Brain Concentration at 1 hr
Experimental: Long-Evans Hooded rats (Charles River: male, 230-300 g) were dosed with solutions of test compounds in PBS by tail vein injection. The dose for all compounds was 3 mg/kg. At one hour, the animals were anesthetized with isoflurane, and then euthanized by decapitation. Trunk blood was collected into a 1.5 mL microcentrifuge tube containing 15 U Heparin, and the plasma recovered after centrifugation. Brains were dissected, weighed, immediately chilled to 4° C., and homogenized using a PowerGen 125 homogenizer in five volumes of ice-cold 2% formic acid. Proteins were precipitated from plasma and brain homogenate with nine and five volumes respectively of ice-cold 2% formic acid and clarified by centrifugation. The supernatant was ultra-filtered by centrifugation through a 3K MWCO spin column (Pall Life Sciences), following the manufacturer's instructions. The concentration of compound in the ultra-filtrate was subjected to reverse-phase liquid chromatography using a 150×2.1 mm Agent C8 reverse-phase column on a Shimadzu Prominence LC, eluting the compounds with a gradient of 2% to 50% of acetonitrile+0.1% formic acid for all compounds. The concentration of the compound in the column effluent was measured using an Applied Biosystems API-3200 triple quadrupole mass spectrometer equipped with an electrospray sample injection system. The counts of the characteristic parent and product ions of each test compound were converted to concentration units by comparison with a standard curve.

in vitro = in vitro ADME; settings: pH 7.4, 24 hours, room temperature
Experimental: PAMPA is a useful in vitro model for predicting the passive diffusion of drugs across the blood-brain barrier (Li, D et al Eur jour of Med Chem 38 (2003) 223-232).
Compounds were diluted in a 100 mM phosphate buffer (pH 7.4) to a concentration of 400 μM and the stock solutions were placed into a 96-well filter plate (Millipore, #MAIPN4510) pre-wetted with 20 mg/mL porcine brain polar lipid extract in 100% dodecane (Avanti, #131022) and placed into a 96-well acceptor plate (Millipore, #MSSACCEPTOR) whose wells were filled with the same phosphate buffer as in the filter plate. This assembly was incubated at room temperature for 24 hours. The experiment was halted by separating the filter plate from the acceptor plate. Aliquots were removed from the filter plate wells, acceptor plate wells, and stock solutions, and 1% trifluoroacetic acid was added to each. All solutions were measured by LC/UV, and passive diffusion rates were calculated using the peak area values (Avdeef, Alex. 2003. Page 147 in Absorption and Drug Development. Hoboken, N.J.: John Wiley & Sons).

[4] = tested on: muscarinic M3 receptors in the salivary glands; test: In vivo inositol phosphate increase in salivary glands, Example 44; set-up: species or system Long Evans Hooded rats; settings: rat, 3 mg/kg sc, 5 mmole/kg LiCl
Experimental: (§4) In lithium chloride-treated laboratory rodents, engagement of muscarinic M1 receptors in the hippocampus may usefully be evaluated in vivo by measuring the increase in the tissue of inositol phosphate (Bymaster F P et al Brain Res 795 (1998) 179-190). This may also be extended to measure engagement of muscaric M3 receptors in the salivary glands.
(§5) Experimental compounds were administered subcutaneously at 3 mg/kg using standard techniques to Long Evans Hooded rats weighing 225 to 350 g, and which had been pretreated with a subcutaneous injection of lithium chloride at a suitable dose between 3 and 5 mmole/kg. At suitable times the animals were briefly anesthetized using 5% isoflurane and euthanized by decapitation. The brains and submaxillary salivary glands were rapidly dissected out, and the hippocampuses were dissected from the brains. The dissected tissues were homogenized in a suitable volume of ice-cold phosphate-buffered saline containing 10 mM lithium chloride (pH=7.4) using a tissue homogenizer, and used immediately or frozen in aliquots at −80° C. for future use. The concentration of inositol-1-phosphate was determined in the homogenates using the […] IP-One Terbium TR-FRET assay kit (Cisbio Bioassays, cat. #62IPAPEJ) according to the manufacturer's instructions.

[5] = tested on: muscarinic M1 receptors in the hippocampus; test: In vivo inositol phosphate increase in hippocampus, Example 44; set-up: species or system Long Evans Hooded rats; settings: rat, 3 mg/kg sc, 5 mmole/kg LiCl
Experimental: as §4, §5

[6] = tested on: pooled male human liver microsomes; test: Metabolism in human liver microsomes, Example 45; type: in vitro ADME
Experimental: Aliquots were removed every 2 hours, and 1% formic acid was added to halt the reaction. Samples were centrifuged, filtered through 0.2 micron spinfilter, and the amount of each compound in the supernatants was quantitated using LC/MS/MS as follows. The ultra-filtrates were subjected to reverse-phase liquid chromatography using a 150×2.1 mm Agilent C8-reverse phase column on a Shimadzu Prominence LC, eluting the compound with a gradient of 2%-50% acetonitrile+0.1% formic acid over 5 minutes. The concentration of the compound in the column effluent was measured using an Applied Biosystems API-3200 triple quadrupole mass spectrometer equipped with a Turbo V source (electrospray sample injection) system. The counts of the characteristic parent ions of the protonated compound and product ions were converted to concentration by comparison with a standard calibration curve. The parent/daughter ion pairs that were monitored for each compound were: 166.0/82.0 (105), 166.0/82.0 (106b), 166.0/82.0 (106a), 169.0/83.0 (136), 168.2/83.0 (121), 168.1/83.0 (122a), 168.1/83.0 (122b), 170.2/83.0 (134), 168.2/84.1 (135), 168.1/84.1 (137) and 169.2/82.1 (138).

[7] = tested on: pooled male human liver microsomes; test: Metabolism by human liver microsomes, Example 33; type: in vitro ADME; settings: for metabolism in human liver microsomes (in words): 6 hours incubation (FIGS. 4A, 4B); for rate of metabolism of S- versus R-enantiomer: human liver microsomes, as also in rat liver microsomes and FMO Supersomes
Experimental: Compounds were incubated with pooled male human liver microsomes (BD Biosciences, #452172) and an NADP-regenerating system in a phosphate buffer (pH 7.4) for a total of 6 hours. Aliquots were removed every 2 hours, and 1% formic acid was added to halt the reaction. Samples were centrifuged, filtered through 0.2 micron spinfilter and the amount of each compound in the supernatants was quantitated using LC/MS/MS.

[8] = target: T1, human muscarinic M1 receptors; test: IP production in A9L cells with human M1 receptors (IPOne TR-FRET), Example 28; type: cell-based; settings: for huM1/A9L Smax: percentage of maximal stimulation by carbachol; for huM1/A9L ED50 relative to CCh*: potency relative to carbachol at its EC50, semi-quantitative
Experimental: (§6) Muscarinic M1 and M3 agonist activity was evaluated by measuring the stimulation of inositol phosphate (IP) production in the presence of lithium chloride from A9L cells transfected with expression plasmids containing human muscarinic M1 and M3 receptors, respectively. The cell lines were a gift from Professor W Messer, and the methods were as described in Tejada F R et al. J. Med. Chem. 2006; 49: 7518-31 except that the assay was scaled down to run in 384 well plates, and IP was measured in the cell lysates using the non-isotopic IPOne TR-FRET assay (CIS-BIO, Inc).
as §2, with “384 well hi-base” for “384-well high-base, small-volume”, “(pH7.4),” for “(pH=7.4),”
as §3

[9] = target: T2, human muscarinic M3 receptors; test: IP production in A9L cells with human M3 receptors (IPOne TR-FRET), Example 28; type: cell-based; settings: for huM3/A9L Smax: percentage of maximal stimulation by carbachol; for huM3/A9L ED50 relative to CCh*: potency relative to carbachol at its EC50, semi-quantitative
Experimental: as §6
as §2, with “384 well hi-base” for “384-well high-base, small-volume”, “(pH7.4),” for “(pH=7.4),”
as §3

T2 sequence (P20309 whole entry): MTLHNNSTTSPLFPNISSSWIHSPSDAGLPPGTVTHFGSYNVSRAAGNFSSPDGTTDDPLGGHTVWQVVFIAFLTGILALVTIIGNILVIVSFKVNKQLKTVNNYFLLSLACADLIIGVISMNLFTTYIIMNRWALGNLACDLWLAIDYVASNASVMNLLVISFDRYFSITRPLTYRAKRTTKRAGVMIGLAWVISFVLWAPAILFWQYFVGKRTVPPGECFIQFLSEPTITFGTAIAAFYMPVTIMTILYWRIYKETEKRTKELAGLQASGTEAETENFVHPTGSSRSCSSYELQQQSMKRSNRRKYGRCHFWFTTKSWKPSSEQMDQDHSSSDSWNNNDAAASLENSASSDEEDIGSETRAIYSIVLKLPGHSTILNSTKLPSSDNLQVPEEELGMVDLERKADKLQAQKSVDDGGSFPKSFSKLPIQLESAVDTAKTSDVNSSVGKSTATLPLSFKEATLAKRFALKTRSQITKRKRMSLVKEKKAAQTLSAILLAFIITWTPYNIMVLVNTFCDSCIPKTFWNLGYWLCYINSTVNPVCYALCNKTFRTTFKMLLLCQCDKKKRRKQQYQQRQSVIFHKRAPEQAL

SMILES | huM1/A9L Smax [1] | huM1/A9L Potency relative to carbachol [1] | huM3/A9L Smax [2] | huM3/A9L Potency relative to carbachol [2] | concentration at 1 h [3] | Papp at 24 h, 400 µM (in vitro; PAMPA, pH 7.4, 400 μM, read-out: PAMPA Permeability Coefficient (×10^6)) | Increase in Inositol Phosphate in Salivary Gland/Control [4] | Increase in Inositol Phosphate in Hippocampus/Control [5] | Loss at 6 hrs (%) [6] | PAMPA Permeability Coefficient (×10^6) (in vitro; 400 μM) | Increase in Inositol Phosphate in Salivary Gland/Control ([4]; 3 mg/kg) | Increase in Inositol Phosphate in Hippocampus/Control ([5]; 3 mg/kg) | metabolism in human liver microsomes (in words) [7] | rate of metabolism of S- versus R-enantiomer [7] | huM1/A9L Smax [8] | huM1/A9L ED50 relative to CCh* [8] | huM3/A9L Smax [9] | huM3/A9L ED50 relative to CCh* [9]
[2H]C([2H])([2H])c1noc(C23CNCC2C3)n1 (stereo not shown) [Compound 138, 5-(3-azabicyclo[3.1.0]hexan-1-yl)-3-methyl-d3-1,2,4-oxadiazole] | 93% | 1.34 | 43% | 0.37 | 5.5 µM | 4.1 ×10⁻⁶ cm/s | 217% | 357% | 29% | – | – | – | – | – | – | – | – | –
[2H]C([2H])([2H])c1noc(C23CNC([2H])([2H])C2C3)n1 (stereo not shown) [Compound 137, 5-(6,6-d2-3-azabicyclo[3.1.0]hexan-1-yl)-3-methyl-1,2,4-oxadiazole] | 97% | 1.26 | 62% | 0.19 | 5.5 µM | – | – | – | 24% | 4.00 ×10^6 | 198% | 503% | – | – | – | – | – | –
Cc1noc([C@H]2CCCNC2)n1 [Compound 3a, S-(+)-3-methyl-5-(piperidin-3-yl)-1,2,4-oxadiazole] | – | – | – | – | – | – | – | – | – | – | – | – | metabolized significantly less in human liver microsomes than in rat liver microsomes | metabolized faster than the R-enantiomers | 129% | + (+ potency 2-10x CCh) | 66% | +/− (+/− potency 0.5-2x CCh)
Cc1noc([C@@H]2CCCNC2)n1 [Compound 3b, R-(−)-3-methyl-5-(piperidin-3-yl)-1,2,4-oxadiazole] | – | – | – | – | – | – | – | – | – | – | – | – | metabolized significantly less in human liver microsomes than in rat liver microsomes | – | 147% | +/− (+/− potency 0.5-2x CCh) | 47% | − (− potency <0.5-0.1x CCh)
[2H]C([2H])([2H])c1noc([C@@H]2CCCNC2)n1 [Compound 7b, R-(−)-3-D3-methyl-5-(piperidin-3-yl)-1,2,4-oxadiazole] | – | – | – | – | – | – | – | – | – | – | – | – | metabolized significantly less in human liver microsomes than in rat liver microsomes | – | 90% | + (+ potency 2-10x CCh) | 86% | +/− (+/− potency 0.5-2x CCh)
[2H]C([2H])([2H])c1noc([C@H]2CCCNC2)n1 [Compound 7a, S-(+)-3-D3-methyl-5-(piperidin-3-yl)-1,2,4-oxadiazole] | – | – | – | – | – | – | – | – | – | – | – | – | metabolized significantly less in human liver microsomes than in rat liver microsomes | metabolized faster than the R-enantiomers | 81% | +/− (+/− potency 0.5-2x CCh) | 76% | −− (−− potency <0.1x CCh)
